This assay deals with T1, human recombinant IL-17A (Homo sapiens, UniProt Q16552).
T1 construct: purchased R&D Systems 7955-IL/CF
T1 sequence (Q16552 24-155): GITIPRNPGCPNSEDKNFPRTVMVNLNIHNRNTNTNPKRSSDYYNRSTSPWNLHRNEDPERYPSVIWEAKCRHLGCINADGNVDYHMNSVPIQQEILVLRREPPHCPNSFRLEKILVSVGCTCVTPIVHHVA
Description: IL-17A AlphaLISA assay (block binding of IL-17A to its receptor IL-17RA). To be noted: read-out: AlphaLISA pIC50 (converted). In a few lines: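 PBS with 0.05% Tween-20 and 0.1% BSA. IL-17A stock 7.5 nM, IL-17RA/Fc stock 5 nM; compound–cytokine pre-incubation 24 h at RT, or 30 min where marked, then 90 min with receptor. pIC50 from 4-parameter logistic AlphaLISA signal, normalised to DMSO and 6 μM reference inhibitor.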

The mark [1] stands for this setting: compounds pre-incubated with the IL-17A for 24 h at room temperature.
[2] abbreviates: compounds pre-incubated with the IL-17A for 30 min (indicated by * in Table A).

Read-outs that look alike come from different tables or passages of the source.

With `Cn1nccc1C(=O)N[C@H](C(=O)Nc1ccc(-c2cnc3ccccn23)cc1)C(c1ccccc1)c1ccccc1` [Example 39, (S)—N-(1-((4-(imidazo[1,2-a]pyridin-3-yl)phenyl)amino)-1-oxo-3,3-diphenylpropan-2-yl)-1-methyl-1H-pyrazole-5-carboxamide], the IC50 under setting [1] was 200 nM.
In the case of `CCc1nocc1C(=O)N[C@H](C(=O)Nc1ccc(-c2c(Cl)cnn2C)cn1)[C@H]1CC[C@H](C)CC1` [Example 201, N—((S)-2-((5-(4-chloro-1-methyl-1H-pyrazol-5-yl)pyridin-2-yl)amino)-1-((1r,4S)-4-methylcyclohexyl)-2-oxoethyl)-3-ethylisoxazole-4-carboxamide], the IC50 under setting [2] was 79.4 nM.
For `Cc1nnn(C)c1-c1ccc(NC(=O)[C@@H](NC(=O)c2ccnn2C)C2CCCCCC2)nc1` [Example 148, (S)—N-(1-cycloheptyl-2-((5-(1,4-dimethyl-1H-1,2,3-triazol-5-yl)pyridin-2-yl)amino)-2-oxoethyl)-1-methyl-1H-pyrazole-5-carboxamide], the IC50 under setting [2] was 200 nM.
In the case of `Cn1nccc1C(=O)N[C@H](C(=O)Nc1ccc(-c2cn[nH]c2)c(F)c1)C(c1ccccc1)c1ccccc1` [Example 62, (S)—N-(1-((3-fluoro-4-(1H-pyrazol-4-yl)phenyl)amino)-1-oxo-3,3-diphenylpropan-2-yl)-1-methyl-1H-pyrazole-5-carboxamide], under setting [1], the IC50 was 794 nM.
Turning to `Cn1nccc1C(=O)N[C@H](C(=O)Nc1ccc(-c2cccc(=O)[nH]2)c(F)c1)C(c1ccccc1)c1ccccc1` [Example 77, (S)—N-(1-((3-fluoro-4-(6-oxo-1,6-dihydropyridin-2-yl)phenyl)amino)-1-oxo-3,3-diphenylpropan-2-yl)-1-methyl-1H-pyrazole-5-carboxamide], under setting [1], the IC50 is 126 nM.
On the same count and under the same terms, with `Cn1nccc1C(=O)N[C@H](C(=O)Nc1ccc(-c2ncnc3c2CCN3)cc1)C(c1ccccc1)c1ccccc1` [Example 40, (S)—N-(1-((4-(6,7-dihydro-5H-pyrrolo[2,3-d]pyrimidin-4-yl)phenyl)amino)-1-oxo-3,3-diphenylpropan-2-yl)-1-methyl-1H-pyrazole-5-carboxamide] the figure was 63.1 nM.
As to `Cc1cnn(C)c1-c1ccc(NC(=O)[C@@H](NC(=O)c2ccnn2C(C)C)[C@H]2CC[C@H](C)CC2)cn1` [Example 204, N—((S)-2-((6-(1,4-dimethyl-1H-pyrazol-5-yl)pyridin-3-yl)amino)-1-((1r,4S)-4-methylcyclohexyl)-2-oxoethyl)-1-isopropyl-1H-pyrazole-5-carboxamide], under setting [2], the IC50 is 200 nM.
For the compound `Cn1nccc1C(=O)N[C@H](C(=O)Nc1ccc(C2(O)CCOCC2)cc1)[C@H]1CC[C@H](C)CC1` [Example 94, N—((S)-2-((4-(4-Hydroxytetrahydro-2H-pyran-4-yl)phenyl)amino)-1-((1r,4S)-4-methylcyclohexyl)-2-oxoethyl)-1-methyl-1H-pyrazole-5-carboxamide], the IC50 under setting [1] was 126 nM.
Turning to `CCn1nccc1C(=O)N[C@H](C(=O)Nc1ccc(-c2c(C)nnn2C)cn1)C1CCCCCC1` [Example 149, (S)—N-(1-cycloheptyl-2-((5-(1,4-dimethyl-1H-1,2,3-triazol-5-yl)pyridin-2-yl)amino)-2-oxoethyl)-1-ethyl-1H-pyrazole-5-carboxamide], under setting [2], the IC50 is 79.4 nM.
Same read-out and setting: to `CCn1nccc1C(=O)N[C@H](C(=O)Nc1ncc(-c2c(C)noc2C)cc1F)C1CCCCCC1` [Example 163, (S)—N-(1-cycloheptyl-2-((5-(3,5-dimethylisoxazol-4-yl)-3-fluoropyridin-2-yl)amino)-2-oxoethyl)-1-ethyl-1H-pyrazole-5-carboxamide] belongs 63.1 nM.
Consider `Cn1nccc1C(=O)N[C@H](C(=O)Nc1ccc(-c2ccnc3c2CCC3)cc1)C(c1ccccc1)c1ccccc1` [Example 44, (S)—N-(1-((4-(6,7-dihydro-5H-cyclopenta[b]pyridin-4-yl)phenyl)amino)-1-oxo-3,3-diphenylpropan-2-yl)-1-methyl-1H-pyrazole-5-carboxamide], for which the IC50 under setting [1] is 251 nM.
On to `Cn1nccc1C(=O)N[C@H](C(=O)Nc1ccc(-c2c[nH]c(=O)c3[nH]ccc23)cc1)C(c1ccccc1)c1ccccc1` [Example 52, (S)-1-methyl-N-(1-oxo-1-((4-(7-oxo-6,7-dihydro-1H-pyrrolo[2,3-c]pyridin-4-yl)phenyl)amino)-3,3-diphenylpropan-2-yl)-1H-pyrazole-5-carboxamide], for which, under setting [1], the IC50 is 12.6 nM.
On the same count and under the same terms, with `Cn1nccc1C(=O)N[C@H](C(=O)Nc1ccc(-c2cc[nH]c(=O)c2)c(F)c1)C(c1ccccc1)c1ccccc1` [Example 35, (S)—N-(1-((3-fluoro-4-(2-oxo-1,2-dihydropyridin-4-yl)phenyl)amino)-1-oxo-3,3-diphenylpropan-2-yl)-1-methyl-1H-pyrazole-5-carboxamide] the figure was 25.1 nM; with `Cn1nccc1C(=O)N[C@H](C(=O)Nc1ccc(-c2ccnc3c2CCN3)cc1)C(c1ccccc1)c1ccccc1` [Example 22, (S)—N-(1-((4-(2,3-dihydro-1H-pyrrolo[2,3-b]pyridin-4-yl)phenyl)amino)-1-oxo-3,3-diphenylpropan-2-yl)-1-methyl-1H-pyrazole-5-carboxamide], 25.1 nM.
For `CCc1nocc1C(=O)N[C@H](C(=O)Nc1ccc(-c2c(C)noc2C)cn1)[C@H]1CC[C@H](C)CC1` [Example 111, N—((S)-2-((5-(3,5-dimethylisoxazol-4-yl)pyridin-2-yl)amino)-1-((1r,4S)-4-methylcyclohexyl)-2-oxoethyl)-3-ethylisoxazole-4-carboxamide], under setting [2], the IC50 was 79.4 nM.
On the same count and under the same terms, to `Cc1noc(C)c1-c1ccc(NC(=O)[C@@H](NC(=O)c2ccc3n2CCNC3)C2CCCCC2)nc1` [Example 130, (S)—N-(1-Cyclohexyl-2-((5-(3,5-dimethylisoxazol-4-yl)pyridin-2-yl)amino)-2-oxoethyl)-1,2,3,4-tetrahydropyrrolo[1,2-a]pyrazine-6-carboxamide] belongs 316 nM; to `Cc1noc(C)c1-c1ccc(NC(=O)[C@@H](NC(=O)c2ccnn2C)[C@H]2CC[C@H](C)CC2)cn1` [Example 138, N—((S)-2-((6-(3,5-dimethylisoxazol-4-yl)pyridin-3-yl)amino)-1-((1r,4S)-4-methylcyclohexyl)-2-oxoethyl)-1-methyl-1H-pyrazole-5-carboxamide], 251 nM.
For `Cn1nccc1C(=O)N[C@H](C(=O)Nc1ccc(-c2ccc(=O)[nH]c2)cc1)C(c1ccccc1)c1ccccc1` [Example 49, (S)-1-methyl-N-(1-oxo-1-((4-(6-oxo-1,6-dihydropyridin-3-yl)phenyl)amino)-3,3-diphenylpropan-2-yl)-1H-pyrazole-5-carboxamide], the IC50 under setting [1] was 100 nM.
On the same count and under the same terms, with `Cn1nccc1C(=O)N[C@H](C(=O)Nc1ccc(-c2ccncc2C(F)(F)F)cc1)C(c1ccccc1)c1ccccc1` [Example 5, (S)-1-methyl-N-(1-oxo-3,3-diphenyl-1-((4-(3-(trifluoromethyl)pyridin-4-yl)phenyl)amino)propan-2-yl)-1H-pyrazole-5-carboxamide] the figure was 63.1 nM.
Turning to `CCn1nccc1C(=O)N[C@H](C(=O)Nc1ccc(-c2c(C)noc2C)cn1)C1CCCCCC1` [Example 122, (S)—N-(1-Cycloheptyl-2-((5-(3,5-dimethylisoxazol-4-yl)pyridin-2-yl)amino)-2-oxoethyl)-1-ethyl-1H-pyrazole-5-carboxamide], the IC50 under setting [2] is 39.8 nM.

Values taken from patent US20230227427A1, “IL-17A MODULATORS” (SANOFI, priority 2010, published 2023).
